Assay [1] relates to assembled layers of primary TM cells. In words: fluorescein transport across assembled layers of primary TM cells in Using type chamber. Type of assay: cell-based, human. To be noted: 10 pmole lipid, transport at 15 seconds. The source says:
A pentalayer of cells were casted on a PVDF filter of 0.45 μm pore size with second to fourth layer topped with rat collagen. Control (without lipid treatment) or with 10 pmole of indicated lipid treated cells were used for these measurements. The transport of flourescein at 15 seconds from the opposite end after introduction of sample at one was estimated. Mean and standard deviation from three independent experiments have been presented. The relative transport has been divided into two zones (marked in yellow), that when the transport is above 0.48 but less than 0.62=1; and above 0.62=2 as indicated.
The transport of fluorescein across cell assembled layered TM cells was determined in an Using type chamber (FIG. 4). The five layers of primary TM cells with collagen matrix in between layers after the first layer were laid on a sterile PVDF membrane (0.45 μm pores). The fluorescein was introduced from one side of the port (the cellular side) and was sampled from another side (the membrane side) within 15 seconds of introduction. Differences in transport between the cell only control and cell treated with lipids for 1-3 hours prior to forming multi-layers (FIG. 4) was observed. The fluorescein transport was quantized and divided into two categories (marked with yellow zones) as 1 and 2 (FIG. 4).
Using type chamber experiments: An Using type chamber (cat #USS1L, World Precision Instrument, Inc.) was used to measure fluorescein flow (sodium fluorescein dye) across the PVDF membrane (cat #75696E Pall Life Sciences, Pensacola Fla.). Trabecular meshwork cells were cultured as described above on the PVDF membrane. Before plating the cells a layer of collagen matrix (Rat Tail Collagen, cat #BD 354249) was formed on the membrane to facilitate the adherence of TM cells to the membrane. The cells were allowed to form a confluent monolayer over a period of 16-24 hours and then another layer of cells was plated on this monolayer. This process was repeated to ultimately achieve a confluent tri-layer of cells. The cells were transfected with DNA of interest [TREK-1+cochlin, TREK-1 and RPE65, TREK-1, transfection agent (Lipofectamine 2000) (Invitrogen)] or left untransfected. 24-36 hours post transfection the membranes were placed between the hemi-chambers of the apparatus connected to a peristaltic pump creating flow across the membrane bathing in 1× DPBS. To measure the flow across the membrane, sodium flourescein dye was used (1:100 dilution of 1 mg/ml). The dye was introduced in one hemi-chamber and equal amounts (100 μl) were aspirated from the other hemi-chamber at 5 minutes post-injection. The fluorescein intensity was measured using the spectrophotometer.

The next assay relates to DBA/2J mice. As to the kind of experiment: IOP lowering after topical application in DBA/2J mice. Type of assay: in vivo, mouse. The following applies: DBA/2J mice, topical 10 pmole in 5% DMSO, once daily. Here is the method:
The right eye was treated with vehicle alone and left eye treated with lipid. Control had both eyes treated with vehicle. A. In DBA/2J mice the indicated lipid in vehicle or control (vehicle only) were administered one daily at around 7.5 months of age in mice which were noted to have a IOP≥18 mm of Hg (20% increase from an average baseline of 15 mm of Hg was employed as treatment point). The average IOP recordings are shown for indicated lipids. B. A 10 picomole each of six PC (13:0/13:0; PE (18:0/18:0), Lyso-PS 18:0, PS 18:1, Sphinganine and C17S1P) were combined and applied as a topical dose once daily for up to 7 days on DBA/2J mouse eyes in 5% DMSO (vehicle). […] Transgenic myocillin mice [Tg-MYOC(Y437H)] subjected to a topical dose of indicated lipids as noted above (FIG. 5C). The IOP lowering compared to control was noted on day 4 and 6 as shown.
Intraocular pressure lowering in mouse models. The endogenous lipids lowered IOP in a DBA/2J mouse model of glaucoma (FIG. 5A). DBA/2J is the only known mouse animal where elevation of IOP occur spontaneously. Although this mouse also suffers from pigmentary dispersion, however, elevation of IOP appears not to correlate with […]. The lipids as indicated were applied as a topical dose (10 pmole in 5% DMSO as vehicle). The 5% DMSO only vehicle served as a control (FIG. 5A). […] A 10 picomole each of six PC (13:0/13:0; PE (18:0/18:0), Lyso-PS 18:0, PS 18:1, Sphinganine, and C17S1P) were combined and applied as a topical dose once daily for up to 7 days on DBA/2J mouse eyes in 5% DMSO (vehicle) (in other words, 10 picomoles of each PC was included). […] In addition to the DBA/2J model described here, these endogenous lipids lowered IOP in cochlin and connective tissue growth factor (CTGF) over-expression models. […] Thus the endogenous lipids assessed here lowered IOP in vastly different DBA/2J and MYOC(Y437H) mouse models as well as in cochlin and CTGF overexpression models covering a broad swath of four rodent glaucoma models that encompass induced as well as spontaneous IOP elevation.
Topical application of lipids and measurement of IOP: The lipids were topically applied as 1 μl drops with 10 pmole lipids. Pressure was measured with a tonolab (Colonial
Medical Supplies, N.H.) or with an assembled cannulation device, used in our laboratory. An initial assessment had utilized 10% DMSO as vehicle. However, all data reported here utilized 5% DMSO.

On to `CCCCCCCCCCCCCC[C@@H](O)[C@@H](N)COP(=O)(O)O` [C17 Sphinganine-1-phosphate], for which, in assay [1], the “transport of fluorescein in assembled layers of primary TM cells” value (shortened to “transport of fluorescein”) is “showed an effect”. For the same compound, the “lowering of IOP” value in the assay with DBA/2J mice is recorded as “lowering of IOP”.

Turning to `CCCCCCCC/C=C\CCCCCCCC(=O)N[C@@H](CO)[C@H](O)CCCCCCCCCCCCCCC` [Cer(d18:0/18:1(9Z))], in assay [1], the “transport of fluorescein” value is given as “showed an effect”. Moreover, the “lowering of IOP” value in the assay with DBA/2J mice was “lowering of IOP”.

Consider `CCCCCCCC/C=C\CCCCCCCCCCCCCCCC(=O)N[C@@H](CO)[C@H](O)/C=C/CCCCCCCCCCCCC` [Cer(d18:1/26:1(17Z))], for which the “transport of fluorescein” value in assay [1] is given as “showed an effect”. Besides, the “lowering of IOP” value in the assay on DBA/2J mice is “lowering of IOP”.

Consider `CCCC/C=C\CCCCCCCC(=O)O[C@H](COC(=O)CCCCCCCCCCC)COP(=O)([O-])OCC[N+](C)(C)C` [PC(12:0/14:1(9Z))], for which the “transport of fluorescein” value in assay [1] is “lack of any effect”. Moreover, in the assay on DBA/2J mice, the “lowering of IOP” value is “not”.

As for `CCCCCCCCCCCCC(=O)OC[C@H](COP(=O)([O-])OCC[N+](C)(C)C)OC(=O)CCCCCCCCCCCC` [PC(13:0/13:0), 1,2-ditridecanoyl-sn-glycero-3-phosphocholine, reference compound], the “transport of fluorescein” value in assay [1] is listed as “lack of any effect”. The “lowering of IOP” value in the assay with DBA/2J mice was “not”.

For the compound `CCCCCCCCCCCCCCCCCC(=O)OC[C@H](COP(=O)(O)OCCN)OC(=O)CCCCCCCCCCCCCCCCC` [PE(18:0/18:0)], the “transport of fluorescein” value in assay [1] was “showed an effect”. In addition, in the assay with DBA/2J mice, the “lowering of IOP” value is recorded as “lowering of IOP”.

Consider `CCCC/C=C\C/C=C\CCCCCCCC(=O)O[C@H](COC(=O)CCCCCCCCCCC)COP(=O)(O)OC1C(O)C(O)C(O)[C@@H](O)C1O` (stereo partly drawn) [PI(12:0/17:2)9Z,12Z))], for which the “transport of fluorescein” value in assay [1] is on record as “showed an effect”. Further, the “lowering of IOP” value with DBA/2J mice is “lowering of IOP”.

For the compound `CCCCC/C=C\C/C=C\C/C=C\C/C=C\CCCC(=O)O[C@H](COC(=O)CCCCCCCCCCCCCCCCC)COP(=O)(O)OC1[C@H](O)[C@H](O)C(O)[C@H](O)[C@H]1O` (stereo partly drawn) [PI(18:0/20:4)5Z,8Z,11Z,14Z))], the “transport of fluorescein” value in assay [1] is listed as “showed an effect”. The “lowering of IOP” value with DBA/2J mice is reported as “lowering of IOP”.

In the case of `CCCCCCCCCCCCCC(=O)OC[C@@H](O)COP(=O)(O)OC[C@H](N)C(=O)O` [PS(14:0/0:0)], the “transport of fluorescein” value in assay [1] is recorded as “showed an effect”. For the same compound, in the assay with DBA/2J mice, the “lowering of IOP” value is reported as “lowering of IOP”.

Turning to `CCCCCCCCCCCCCCCCCC(=O)OC[C@@H](O)COP(=O)(O)OC[C@H](N)C(=O)O` [PS(18:0/0:0)], the “transport of fluorescein” value in assay [1] was “showed an effect”. Further, in the assay on DBA/2J mice, the “lowering of IOP” value is reported as “lowering of IOP”.

As for `CCCCCCCCCCC/C=C/[C@@H](O)[C@H](COP(=O)([O-])OCC[N+](C)(C)C)NC(=O)CCCCCCCCCCCCCCCCCCCCCCCC` [SM(d16:1/25:0)], the “transport of fluorescein” value in assay [1] is recorded as “showed an effect”. Moreover, in the assay with DBA/2J mice, the “lowering of IOP” value is on record as “lowering of IOP”.

Consider `CCCCCCCCCCCCCCC[C@@H](O)[C@@H](N)CO` [Sphinganine], for which the “transport of fluorescein” value in assay [1] is on record as “showed an effect”. Moreover, the “lowering of IOP” value in the assay with DBA/2J mice is listed as “lowering of IOP”.

The values above are taken from US10046001B2, “Compositions and methods for reducing intraocular pressure” (UNIVERSITY OF MIAMI, priority 2013, dated 2018).
